One experiment concerns NCI-H460. The experiment is described as follows: Antiproliferative activity against human H460 cells after 48 hrs by propidium iodide staining-based fluorometric analysis. Format: functional, cell-based. The note with it: NCI-H460, 48 h.
For the next experiment, the system named is HT-29. The experiment is described as follows: Antiproliferative activity against human HT-29 cells after 48 hrs by propidium iodide staining-based fluorometric analysis. Format: functional, cell-based. The note with it: HT-29, 48 h.
Experiment [1] concerns A549. The experiment is described as follows: Induction of apoptosis in human A549 cells assessed as early apoptotic cells at 0.4 uM after 24 hrs by Annexin V/propidium iodide staining based flow cytometric analysis (reference value: 0.22%). Format: functional. (A flow cytometer gives signals particle by particle.)
The test system of the next experiment is PANC-1. The experiment is described as follows: Antiproliferative activity against human PANC1 cells after 48 hrs by propidium iodide staining-based fluorometric analysis. Format: functional, cell-based. The note with it: PANC-1, 48 h.
The test system of experiment [2] is A549. The experiment is described as follows: Cell cycle arrest in human A549 cells assessed as accumulation at S phase at 0.4 uM after 24 hrs by propidium iodide staining based flow cytometry (reference value: 27.9%). It is filed as functional.
In the next experiment the test system is MIA PaCa-2. In words: Antiproliferative activity against human MIAPaCa2 cells after 48 hrs by propidium iodide staining-based fluorometric analysis. Format: functional, cell-based. The note with it: MIA PaCa-2, 48 h.
Experiment [3] concerns A549. In words: Cell cycle arrest in human A549 cells assessed as accumulation at G1 phase at 0.4 uM after 24 hrs by propidium iodide staining based flow cytometry (reference value: 67.52%). Format: functional.
In experiment [4] the target is Epidermal growth factor receptor (Homo sapiens, UniProt P00533). The experiment is described as follows: Inhibition of His6-tagged recombinant EGFR cytoplasmic domain (645 to 1186 residues) (unknown origin) expressed in baculovirus infected Sf9 insect cells preincubated for 10 mins followed by ATP-MgCl2 addition and measured after 1 hr by DELFIA/time-resolved fluorometric analysis.

In experiment [5] the test system is A549. The experiment is described as follows: Induction of apoptosis in human A549 cells assessed as late apoptotic cells at 0.4 uM after 24 hrs by Annexin V/propidium iodide staining based flow cytometric analysis (reference value: 0.08%). It is filed as functional.
The test system of experiment [6] is A549. In words: Induction of apoptosis in human A549 cells assessed as viable cells at 0.4 uM after 24 hrs by Annexin V/propidium iodide staining based flow cytometric analysis (reference value: 98.03%). It is filed as functional. The note with it: A549, 24 h, read-out: Activity.
For experiment [7], the system named is A549. In words: Cell cycle arrest in human A549 cells assessed as accumulation at G2 phase at 0.4 uM after 24 hrs by propidium iodide staining based flow cytometry (reference value: 4.19%). Format: functional.
In experiment [8] the test system is A549. The experiment is described as follows: Induction of apoptosis in human A549 cells assessed as necrotic cells at 0.4 uM after 24 hrs by Annexin V/propidium iodide staining based flow cytometric analysis (reference value: 0.09%). Format: functional.

Molecules are shown by their SMILES.

This note sets out measurements from ChEMBL document CHEMBL4270577, “Synthesis, anticancer activity and molecular modeling studies of 1,2,4-triazole derivatives as EGFR inhibitors” (Eur J Med Chem, 2018).

Chain of Epidermal growth factor receptor (P00533 whole entry, the tested form may be a part): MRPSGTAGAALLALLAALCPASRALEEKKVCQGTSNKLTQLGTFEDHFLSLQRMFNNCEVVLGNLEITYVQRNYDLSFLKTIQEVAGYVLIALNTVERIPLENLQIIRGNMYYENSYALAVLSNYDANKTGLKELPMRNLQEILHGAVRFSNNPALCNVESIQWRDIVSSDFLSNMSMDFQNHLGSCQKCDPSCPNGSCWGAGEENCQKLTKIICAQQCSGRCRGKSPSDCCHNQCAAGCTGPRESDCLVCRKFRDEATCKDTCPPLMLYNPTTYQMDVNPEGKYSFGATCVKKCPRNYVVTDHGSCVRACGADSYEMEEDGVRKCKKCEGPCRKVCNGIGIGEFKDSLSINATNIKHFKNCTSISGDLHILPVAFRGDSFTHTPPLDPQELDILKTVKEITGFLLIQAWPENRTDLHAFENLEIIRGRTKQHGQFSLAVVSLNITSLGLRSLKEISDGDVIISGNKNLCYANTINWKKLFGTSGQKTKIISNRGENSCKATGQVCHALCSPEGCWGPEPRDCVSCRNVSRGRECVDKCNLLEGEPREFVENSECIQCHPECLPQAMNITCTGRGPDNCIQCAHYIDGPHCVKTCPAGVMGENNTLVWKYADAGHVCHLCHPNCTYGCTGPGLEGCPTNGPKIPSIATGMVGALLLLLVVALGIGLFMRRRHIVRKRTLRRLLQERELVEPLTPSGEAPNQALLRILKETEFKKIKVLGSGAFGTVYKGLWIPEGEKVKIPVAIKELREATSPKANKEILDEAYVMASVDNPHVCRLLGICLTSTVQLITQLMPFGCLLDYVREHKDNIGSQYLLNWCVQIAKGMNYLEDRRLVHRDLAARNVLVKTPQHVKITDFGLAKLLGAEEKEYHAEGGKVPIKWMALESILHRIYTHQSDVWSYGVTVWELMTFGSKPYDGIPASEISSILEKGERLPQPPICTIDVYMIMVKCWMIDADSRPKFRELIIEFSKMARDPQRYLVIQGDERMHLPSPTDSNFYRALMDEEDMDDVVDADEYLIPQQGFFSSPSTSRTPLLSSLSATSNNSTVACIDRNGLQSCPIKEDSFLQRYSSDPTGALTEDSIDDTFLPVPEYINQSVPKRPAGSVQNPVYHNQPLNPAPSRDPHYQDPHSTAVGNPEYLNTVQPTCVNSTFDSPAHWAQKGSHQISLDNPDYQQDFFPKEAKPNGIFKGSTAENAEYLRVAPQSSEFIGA

As for `COc1cc(-c2nc3sc(-c4ccc(Cl)cc4)cn3n2)cc(OC)c1OC`, the half-maximal inhibitory concentration (IC50) (in general, the concentration that gives 50% inhibition) in the experiment on NCI-H460 turned out to be 3 µM; with HT-29 it was 3.5 µM; in the experiment on PANC-1, 3.5 µM; with MIA PaCa-2 it was 3.9 µM; in [4] it was 1.7 µM. Further, the Activity in the experiment on A549 [1] was 5.38%; with A549 [2], 12.69%; in the experiment on A549 [3] it was 49.52%; in the experiment with A549 [5] it was 7.65%; in the experiment with A549 [7], 22.92%; in the experiment with A549 [8], 1.84%. For the same compound, the viability at 0.4 µM with A549 [6] turned out to be 83.5%.
